IC50 data for 20 compounds are collected here from patent US11548868B2, “Heterocyclic compounds, compositions comprising heterocyclic compound, and methods of use thereof” (JS INNOPHARM (SHANGHAI) LTD, priority 2017, dated 2023).

Where only a bound is given, the exact number is not on record here.

Test [1] concerns the target T1, TDO2 in A172 cancer cells (Homo sapiens, UniProt P48775).
T1 construct: endogenous in cells; host or cells: A172 cancer cells
As to the kind of experiment: TDO2 Cellular Assay (kynurenine production in A172 cancer cells). It counts as cell-based. The note with it: L-Trp 1 mM, 24 hours incubation, kynurenine at 490 nm. Put shortly:
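A172 cells seeded overnight, then given 1 mM L-Trp and test compound (0–25 μM, 0.25% DMSO) for 24 h at 37 °C. Supernatant treated with TCA at 50 °C to convert N-formylkynurenine, kynurenine detected with p-dimethylaminobenzaldehyde at 490 nm; IC50 by non-linear regression of inhibition versus DMSO control.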

Test [2] concerns the target T2, IDO1 in Hela cancer cells (Homo sapiens, UniProt P14902).
T2 construct: endogenous in cells; host or cells: Hela cancer cells stimulated with human IFN-γ
As to the kind of experiment: IDO1 Cellular Assay (kynurenine production in IFN-γ stimulated Hela cancer cells). It counts as cell-based. The settings on record: human IFN-γ 50 ng/mL, 48 hours incubation, kynurenine at 490 nm. The method in brief:
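HeLa cells stimulated with 50 ng/mL IFN-γ (final) and treated 48 h with compound (0–25 μM final, 0.25% DMSO). Supernatant kynurenine measured after TCA hydrolysis and p-dimethylaminobenzaldehyde reaction at 490 nm; inhibition vs DMSO control, IC50 by non-linear regression.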

T1 sequence (P48775 whole entry): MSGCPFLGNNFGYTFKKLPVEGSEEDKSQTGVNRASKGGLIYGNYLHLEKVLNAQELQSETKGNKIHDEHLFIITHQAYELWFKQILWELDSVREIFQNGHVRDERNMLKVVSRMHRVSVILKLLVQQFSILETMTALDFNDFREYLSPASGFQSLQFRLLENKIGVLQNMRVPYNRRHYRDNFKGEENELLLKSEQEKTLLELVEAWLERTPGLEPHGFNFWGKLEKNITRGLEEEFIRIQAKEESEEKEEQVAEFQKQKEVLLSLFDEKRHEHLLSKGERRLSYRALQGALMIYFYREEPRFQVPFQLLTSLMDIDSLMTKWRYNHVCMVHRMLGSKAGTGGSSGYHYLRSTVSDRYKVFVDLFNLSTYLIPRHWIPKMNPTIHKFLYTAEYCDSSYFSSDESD
T2 sequence (P14902 whole entry): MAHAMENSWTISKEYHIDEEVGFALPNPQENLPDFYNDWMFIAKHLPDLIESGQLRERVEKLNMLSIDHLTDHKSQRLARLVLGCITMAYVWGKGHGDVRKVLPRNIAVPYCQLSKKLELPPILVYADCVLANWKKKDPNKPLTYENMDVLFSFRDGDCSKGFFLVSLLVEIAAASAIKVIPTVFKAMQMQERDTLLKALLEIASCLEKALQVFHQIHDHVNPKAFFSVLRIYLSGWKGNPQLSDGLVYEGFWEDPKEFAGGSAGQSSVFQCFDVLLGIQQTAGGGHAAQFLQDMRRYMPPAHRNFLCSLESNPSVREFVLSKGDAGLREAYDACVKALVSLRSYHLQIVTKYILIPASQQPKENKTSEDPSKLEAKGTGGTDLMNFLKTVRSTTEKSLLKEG

`O=C(Nc1ccc(Cl)cc1)N1C[C@@H]2C[C@@](O)(c3cc(Cl)cc4[nH]ncc34)C[C@@H]2C1` [Example 165, (3aR,5r,6aS)-5-(6-chloro-1H-indazol-4-yl)-N-(4-chlorophenyl)-5-hydroxyhexahydrocyclopenta[c]pyrrole-2(1H)-carboxamide]: the IC50 is at most 500 nM in test [1] and 1000 to 5000 nM in test [2].
The like results for `CS(=O)(=O)Nc1cccc(C(=O)N[C@H]2[C@@H]3C[C@@](O)(c4cc(Cl)cc5[nH]ncc45)C[C@@H]32)c1` [Example 141, N-((1R,3r,5S,6r)-3-(6-chloro-1H-indazol-4-yl)-3-hydroxybicyclo[3.1.0]hexan-6-yl)-3-(methylsulfonamido)benzamide] were, in that order, 500 to 1000 nM and above 5000 nM.
The matching figures for `NS(=O)(=O)N[C@H]1[C@@H]2C[C@@](O)(c3cc(Cl)cc4[nH]ncc34)C[C@@H]21` [Example 140, N-((1R,3r,5S,6r)-3-(6-chloro-1H-indazol-4-yl)-3-hydroxybicyclo[3.1.0]hexan-6-yl)sulfuric diamide]: at most 500 nM and at most 500 nM.
As to `O=C(N[C@H]1[C@@H]2C[C@@](O)(c3cc(Cl)cc4cn[nH]c34)C[C@@H]21)c1ccccc1` [Example 129, N-((1R,3r,5S,6r)-3-(5-chloro-1H-indazol-7-yl)-3-hydroxybicyclo[3.1.0]hexan-6-yl)benzamide], the IC50 in test [1] and in test [2] was 1000 to 5000 nM throughout.
Turning to `CC(=O)N1C[C@@H]2CN(c3cc(C(F)(F)F)cc4cncn34)C[C@@H]2C1(C)C` (racemic) [Example 51, Racemic-1-((3aS,6aR)-1,1-dimethyl-5-(7-(trifluoromethyl)imidazo[1,5-a]pyridin-5-yl)hexahydropyrrolo[3,4-c]pyrrol-2(1H)-yl)ethanone], the IC50 in test [1] and in test [2] was above 5000 nM each time.
Turning to `O=S(=O)(N[C@H]1[C@@H]2C[C@@](O)(c3cc(Cl)cc4[nH]ncc34)C[C@@H]21)c1ccccc1` [Example 95, N-((1R,3r,5S,6r)-3-(6-chloro-1H-indazol-4-yl)-3-hydroxybicyclo[3.1.0]hexan-6-yl)benzenesulfonamide], the 50% inhibitory concentration (IC50) in test [1] was at most 500 nM; in test [2], above 5000 nM.
With `CC(=O)N[C@H]1[C@@H]2C[C@@](O)(c3cc(Cl)cc4[nH]ncc34)C[C@@H]21` [Example 64, N-((1R,3r,5S,6r)-3-(6-chloro-1H-indazol-4-yl)-3-hydroxybicyclo[3.1.0]hexan-6-yl)acetamide], the IC50 was at most 500 nM in test [1] and above 5000 nM in test [2].
The like results for `O=C(N[C@H]1[C@@H]2C[C@@](O)(c3cc(Cl)cc4[nH]ncc34)C[C@@H]21)c1cccc(-c2ccccc2)c1` [Example 171, N-((1R,3r,5S,6r)-3-(6-chloro-1H-indazol-4-yl)-3-hydroxybicyclo[3.1.0]hexan-6-yl)-[1,1′-biphenyl]-3-carboxamide] were, in that order, at most 500 nM and 500 to 1000 nM.
The matching figures for `O=C(N[C@H]1[C@@H]2C[C@@](O)(c3cc(Cl)cc4[nH]ncc34)C[C@@H]21)c1cccc(F)c1` [Example 143, N-((1R,3r,5S,6r)-3-(6-chloro-1H-indazol-4-yl)-3-hydroxybicyclo[3.1.0]hexan-6-yl)-3-fluorobenzamide]: at most 500 nM and at most 500 nM.
The matching figures for `O=S(=O)(C1CC1)N1C[C@@H]2C[C@@](O)(c3cc(Cl)cc4cn[nH]c34)C[C@@H]2C1` [Example 100, (3aR,5r,6aS)-5-(5-chloro-1H-indazol-7-yl)-2-(cyclopropylsulfonyl)octahydrocyclopenta[c]pyrrol-5-ol]: 1000 to 5000 nM and above 5000 nM.
Turning to `O=C(c1nc2cc(Cl)ccc2[nH]1)N1C[C@@H]2C[C@@](O)(c3cc(Cl)cc4[nH]ncc34)C[C@@H]2C1` [Example 134, (5-chloro-1H-benzo[d]imidazol-2-yl)((3aR,5r,6aS)-5-(6-chloro-1H-indazol-4-yl)-5-hydroxyhexahydrocyclopenta[c]pyrrol-2(1H)-yl)methanone], the half-inhibitory concentration (IC50) in test [1] is at most 500 nM; in test [2] it was 1000 to 5000 nM.
The like results for `O=C(N[C@H]1[C@@H]2C[C@@](O)(c3cc(Cl)cc4[nH]ncc34)C[C@@H]21)c1ccc(Cl)cc1` [Example 119, 4-chloro-N-((1R,3r,5S,6r)-3-(6-chloro-1H-indazol-4-yl)-3-hydroxybicyclo[3.1.0]hexan-6-yl)benzamide] were, in that order, at most 500 nM and at most 500 nM.
The like results for `O[C@@]1(c2cc(Cl)cc3[nH]ncc23)C[C@H]2CN(c3ccncc3)C[C@H]2C1` [Example 116, (3aR,5r,6aS)-5-(6-chloro-1H-indazol-4-yl)-2-(pyridin-4-yl)octahydrocyclopenta[c]pyrrol-5-ol] were, in that order, at most 500 nM and above 5000 nM.
The like results for `CC(=O)N1C[C@@H]2C[C@@](O)(c3cc(Cl)cc4cn[nH]c34)C[C@@H]2C1` [Example 8, 1-((3aR,5r,6aS)-5-(5-chloro-1H-indazol-7-yl)-5-hydroxyhexahydrocyclopenta[c]pyrrol-2(1H)-yl)ethanone] were, in that order, above 5000 nM and above 5000 nM.
`CC(=O)N1C[C@@H]2C[C@@](O)(c3cc(Cl)cn4cncc34)C[C@@H]2C1` [Example 6, 1-((3aR,5r,6aS)-5-(6-chloroimidazo[1,5-a]pyridin-8-yl)-5-hydroxyhexahydrocyclopenta[c]pyrrol-2(1H)-yl)ethanone]: the IC50 is 500 to 1000 nM in test [1] and above 5000 nM in test [2].
The matching figures for `O=C(N[C@H]1[C@@H]2C[C@@](O)(c3cc(Cl)cc4cn[nH]c34)C[C@@H]21)C1CC1` [Example 107, N-((1R,3r,5S,6r)-3-(5-chloro-1H-indazol-7-yl)-3-hydroxybicyclo[3.1.0]hexan-6-yl)cyclopropanecarboxamide]: at most 500 nM and above 5000 nM.
The matching figures for `O=S(=O)(c1ccccc1)N1C[C@@H]2C[C@@](O)(c3cc(Cl)cc4[nH]ncc34)C[C@@H]2C1` [Example 35, (3aR,5r,6aS)-5-(6-chloro-1H-indazol-4-yl)-2-(phenylsulfonyl)octahydrocyclopenta[c]pyrrol-5-ol]: at most 500 nM and above 5000 nM.
The like results for `O=S(=O)(NC1CCCCC1)N[C@H]1[C@@H]2C[C@@](O)(c3cc(Cl)cc4[nH]ncc34)C[C@@H]21` [Example 123, N′-cyclohexyl-N-((1R,3r,5S,6r)-3-(6-chloro-1H-indazol-4-yl)-3-hydroxybicyclo[3.1.0]hexan-6-yl)sulfuric diamide] were, in that order, at most 500 nM and 1000 to 5000 nM.
Turning to `COc1ccccc1-c1c[nH]cc1C(=O)N[C@H]1[C@@H]2C[C@@](O)(c3cc(Cl)cc4[nH]ncc34)C[C@@H]21` [Example 127, N-((1R,3r,5S,6r)-3-(6-chloro-1H-indazol-4-yl)-3-hydroxybicyclo[3.1.0]hexan-6-yl)-4-(2-methoxyphenyl)-1H-pyrrole-3-carboxamide], the half-inhibitory concentration (IC50) was at most 500 nM in test [1] and above 5000 nM in test [2].
The matching figures for `O=C(c1ccncc1)N1C[C@@H]2C[C@@](O)(c3cc(Cl)cc4[nH]ncc34)C[C@@H]2C1` [Example 40, ((3aR,5r,6aS)-5-(6-chloro-1H-indazol-4-yl)-5-hydroxyhexahydrocyclopenta[c]pyrrol-2(1H)-yl)(pyridin-4-yl)methanone]: at most 500 nM and above 5000 nM.
